In patent US20030229072A1, “Cyclic and acyclic amidines and pharmaceutical compositions containing them for use as progesterone receptor binning agents” (priority 2000, published 2003):

melting point: 101 to 102 °C
SMILES: Cc1cc([N+](=O)[O-])ccc1/N=C1/C2CC3CC(C2)CC(C3)N1CC(C)C [Example 54, N-(4-Isobutyl-4-azatricyclo[4.3.1.1^3,8]undec-5-ylidene)-2-methyl-4-nitroaniline]
